From PubChem BioAssay (NCI) come the findings set out here.

By GI50 is commonly meant the concentration that inhibits growth by half. Usually TGI stands for the concentration at which net growth stops. Low readings indicate more potent growth arrest, high ones less potent growth arrest.

Test systems include HOP-92 NSCLC; IGROV1 ovarian; K-562 leukemia; LOX IMVI melanoma; NCI-H23 lung; OVCAR-5 ovarian; SK-MEL-2 melanoma; SK-OV-3 ovarian; TK-10 renal; UACC-62 melanoma.
Experiment in all cases: DTP human tumour cell line panel, 48 h

The structures appear in SMILES notation. Where “and” joins values, the source holds several entries; their conditions need not be identical. Identical values can stand only once.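 Tested at 5 concentrations; 48 h exposure; 96-well plates; endpoints linearly interpolated, else capped at highest concentration. GI50 is the concentration that inhibits growth by half. TGI is the concentration that stops growth completely.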

`C[As](C)SC1OCC(O)C(O)C1O` (stereo not given): the 50% growth inhibitory concentration (GI50) in the test with HOP-92 NSCLC was 283 nM; in the test with IGROV1 ovarian, 805 nM; in the test with K-562 leukemia it was 49.5 nM; with LOX IMVI melanoma it was 199 nM; in the test on NCI-H23 lung, 281 nM; in the test with OVCAR-5 ovarian, 208 nM. Further, the GI50 with SK-MEL-2 melanoma was 580 nM; in the test on SK-OV-3 ovarian, 211 nM; with TK-10 renal it was below 25.8 nM; with UACC-62 melanoma it was 195 nM. Besides, the TGI came out at 2070 nM in the test on HOP-92 NSCLC; 6710 nM in the test with IGROV1 ovarian; 378 nM with K-562 leukemia; 566 nM with LOX IMVI melanoma; 1760 nM in the test on NCI-H23 lung; 710 nM with OVCAR-5 ovarian. Further, the concentration for total growth inhibition (TGI) in the test on SK-MEL-2 melanoma came to 2530 nM; with SK-OV-3 ovarian, 4470 nM; with TK-10 renal, 190 nM; with UACC-62 melanoma, 556 nM.

Take `CC1OC(OC2C(O)C(O)C(O)C(O)C2O)C(N)CC1N=C(N)C(=O)O` (stereo not given): the TGI in the test on HOP-92 NSCLC, with IGROV1 ovarian, with K-562 leukemia, with LOX IMVI melanoma, in the test on NCI-H23 lung and in the test with OVCAR-5 ovarian was above 100000 nM throughout. Besides, the total growth inhibition concentration (TGI) in the test on SK-MEL-2 melanoma, in the test on SK-OV-3 ovarian, with TK-10 renal and in the test on UACC-62 melanoma was above 100000 nM in each case.

For the compound `O=C(O)c1ccccc1NCn1c(=S)sc2ccccc21`, the TGI is above 100000 nM in the test on HOP-92 NSCLC; above 100000 nM in the test with IGROV1 ovarian; above 100000 nM in the test on K-562 leukemia; 43400 nM in the test with LOX IMVI melanoma; 63400 nM in the test on NCI-H23 lung; above 100000 nM in the test on OVCAR-5 ovarian. Moreover, the TGI with SK-MEL-2 melanoma, with SK-OV-3 ovarian, in the test on TK-10 renal and in the test on UACC-62 melanoma was above 100000 nM throughout.

Consider `CCCCCCCCCCCCCCCC[n+]1ccccc1`, for which the GI50 in the test on HOP-92 NSCLC was 210 nM and 335 nM; in the test on IGROV1 ovarian, 384 nM; with K-562 leukemia, 278 nM; in the test on LOX IMVI melanoma, 242 nM; in the test on NCI-H23 lung it was 295 nM; in the test with OVCAR-5 ovarian, 494 nM and 842 nM. Further, the GI50 was 468 nM in the test on SK-MEL-2 melanoma; 1030 nM and 692 nM in the test on SK-OV-3 ovarian; 207 nM and 432 nM in the test with TK-10 renal; 565 nM in the test on UACC-62 melanoma. Also, the TGI in the test on HOP-92 NSCLC was 753 nM and 1400 nM; in the test with IGROV1 ovarian it was 1900 nM; in the test on K-562 leukemia, 1640 nM; with LOX IMVI melanoma, 1090 nM; in the test with NCI-H23 lung, 1430 nM; with OVCAR-5 ovarian it was 1860 nM and 2930 nM. Further, the TGI in the test on SK-MEL-2 melanoma is 1760 nM; in the test with SK-OV-3 ovarian, 2500 nM and 2720 nM; in the test on TK-10 renal, 518 nM and 1660 nM; with UACC-62 melanoma it was 2150 nM.

For the compound `OCC(O)C(O)C(O)C(O)c1nnc2c(-c3ccccc3)nc3ccccc3n12` (stereo not given), the GI50 in the test on HOP-92 NSCLC is above 100000 nM; in the test on IGROV1 ovarian, 14500 nM; in the test with K-562 leukemia it was 78300 nM; in the test on LOX IMVI melanoma it was 51500 nM; with NCI-H23 lung, above 100000 nM; in the test on OVCAR-5 ovarian, above 100000 nM. Besides, the GI50 was above 100000 nM in the test with SK-MEL-2 melanoma, above 100000 nM in the test on SK-OV-3 ovarian, 29200 nM in the test with TK-10 renal and above 100000 nM with UACC-62 melanoma. In addition, the TGI in the test with HOP-92 NSCLC, in the test on IGROV1 ovarian, in the test on K-562 leukemia, in the test with LOX IMVI melanoma, in the test with NCI-H23 lung and in the test on OVCAR-5 ovarian was above 100000 nM throughout. The total growth inhibition concentration (TGI) in the test with SK-MEL-2 melanoma, with SK-OV-3 ovarian, with TK-10 renal and with UACC-62 melanoma was above 100000 nM throughout.

`COc1ccc2c(c1OC)O/C(=C\c1ncc([N+](=O)[O-])n1C)C2=O`: the GI50 is 1450 nM in the test on HOP-92 NSCLC; 1360 nM with IGROV1 ovarian; 2120 nM with K-562 leukemia; 482 nM in the test on LOX IMVI melanoma; 1300 nM in the test with NCI-H23 lung; 2820 nM with OVCAR-5 ovarian. Moreover, the GI50 was 681 nM in the test on SK-MEL-2 melanoma, 2710 nM in the test on SK-OV-3 ovarian, 3260 nM in the test with TK-10 renal and 1490 nM in the test with UACC-62 melanoma. Also, the TGI in the test with HOP-92 NSCLC was 4860 nM; in the test on IGROV1 ovarian it was 9460 nM; with K-562 leukemia, 7990 nM; in the test with LOX IMVI melanoma, 2040 nM; in the test with NCI-H23 lung, 5600 nM; in the test on OVCAR-5 ovarian it was 12500 nM. Further, the total growth inhibition concentration (TGI) in the test with SK-MEL-2 melanoma was 1720 nM; with SK-OV-3 ovarian, 9100 nM; in the test with TK-10 renal, above 24100 nM; in the test with UACC-62 melanoma, 3360 nM.

On to `CCn1c(-c2nonc2N)nc2cnc(Oc3cccc(NC(=O)c4ccc(N(C)C)cc4)c3)cc21`, for which the GI50 in the test on HOP-92 NSCLC was 4.47 nM; in the test on IGROV1 ovarian, 22000 nM; in the test with K-562 leukemia, above 25000 nM; in the test on LOX IMVI melanoma, above 25000 nM; in the test on NCI-H23 lung it was above 25000 nM; with OVCAR-5 ovarian it was above 25000 nM. Moreover, the GI50 with SK-MEL-2 melanoma was above 25000 nM; in the test with SK-OV-3 ovarian, above 13700 nM; in the test on TK-10 renal, 549 nM; in the test on UACC-62 melanoma, above 25000 nM. Besides, the concentration for total growth inhibition (TGI) in the test on HOP-92 NSCLC, in the test on IGROV1 ovarian, with K-562 leukemia, in the test with LOX IMVI melanoma, with NCI-H23 lung and in the test on OVCAR-5 ovarian was above 25000 nM in each case. For the same compound, the concentration for total growth inhibition (TGI) in the test on SK-MEL-2 melanoma was above 25000 nM; in the test on SK-OV-3 ovarian it was above 25000 nM; in the test on TK-10 renal, above 21000 nM; with UACC-62 melanoma it was above 25000 nM.

For the compound `Cn1c(=O)c2c(nc(N/N=C/c3ccccc3C(=O)O)n2C)n(C)c1=O`, the total growth inhibition concentration (TGI) in the test on HOP-92 NSCLC, with IGROV1 ovarian, in the test on K-562 leukemia, in the test on LOX IMVI melanoma, in the test on NCI-H23 lung and in the test with OVCAR-5 ovarian was above 100000 nM throughout. Besides, the total growth inhibition concentration (TGI) in the test with SK-MEL-2 melanoma, in the test on SK-OV-3 ovarian, with TK-10 renal and in the test on UACC-62 melanoma was above 100000 nM each time.

As to `Cc1nc2ccccc2c(=O)n1/N=C(\N=Nc1cc(Cl)ccc1Cl)c1ccccc1`, the TGI in the test with HOP-92 NSCLC, in the test with IGROV1 ovarian, in the test with K-562 leukemia, in the test with LOX IMVI melanoma, with NCI-H23 lung and in the test with OVCAR-5 ovarian was above 100000 nM in each case. Besides, the concentration for total growth inhibition (TGI) in the test with SK-MEL-2 melanoma, in the test on SK-OV-3 ovarian, with TK-10 renal and in the test on UACC-62 melanoma was above 100000 nM in each case.

As for `C1=CC2CCC1CN2CCC1CNc2ccccc21` (stereo not given), the TGI in the test with HOP-92 NSCLC, in the test on IGROV1 ovarian, in the test with K-562 leukemia, with LOX IMVI melanoma, in the test with NCI-H23 lung and in the test on OVCAR-5 ovarian was above 100000 nM throughout. Moreover, the concentration for total growth inhibition (TGI) in the test on SK-MEL-2 melanoma, with SK-OV-3 ovarian, in the test with TK-10 renal and in the test with UACC-62 melanoma was above 100000 nM throughout.
